{
  "source": "patent US20140221480A1",
  "about": "“METHODS OF MANAGING BRAIN INFLAMMATION” (EMORY UNIVERSITY, priority 2013, published 2014)",
  "assay_type_in_all_cases": "in vivo, mice (C57BL/6J)",
  "key": {"[1]": {"test_system": "inflammatory cytokines in ischemic brain", "assay": "Antibody array of inflammatory cytokines in ischemic brain tissue", "conditions": "6 hrs after cerebral I/R; 3 mg/kg i.p.; vs untreated controls, p<0.05", "source_text": "(§1) Animals—Fifty male mice (C57BL/6J, body weight 25˜30 g) were obtained from Jackson Laboratory and maintained in the Division of Laboratory Animal Resources at Emory University”. The experiments outlined in this manuscript conform to the Guide for the Care and Use of Laboratory Animals published by the National Institutes of Health. The animal care and experimental protocols were approved by the Emory University Committee on Animal Care. Animals were randomly assigned to four groups: sham control (S, n=4, for molecular analysis), focal cerebral ischemia/reperfusion (I/R, n=16; 5 for molecular analysis), Sham+TAK-242 (S-T, n=4, for molecular analysis), and I/R+TAK-242 (I/R-T, n=16; 5 for molecular analysis). Ten mice were used for the measurement of TAK-242 concentration in plasma and brain tissue.\n(§2) Focal cerebral ischemia/reperfusion—Focal cerebral FR was induced by occlusion of the middle cerebral artery (MCAO) on the left side. Mice were subjected to anesthesia by 5.0% isoflurane and maintained by inhalation of 1.5% to 2% isoflurane driven by 100% oxygen flow. Mice were ventilated (110 breaths/min with volume 0.5 ml) and body temperature was regulated at 37.0° C. Heart rate and PO2 were monitored during surgery. Following the skin incision, the left common carotid artery (CCA), the external carotid artery (ECA), and the internal carotid artery (ICA) were carefully exposed. Microvascular aneurysm clips were applied to the left CCA and the ICA. A coated 6-0 filament (6023PK, Doccol Corp. CA, USA) was introduced into an arteriotomy hole, fed distally into the ICA and advanced 11 mm from the carotid bifurcation. The ICA clamp was removed and focal cerebral ischemia started. After ischemia for 60 min, the filament and the CCA clamp were gently removed (reperfusion starts). The collar suture at the base of the ECA stump was tightened. The skin was closed, anesthesia discontinued, and the animal allowed to recover in a pre-warmed cage. Control mice underwent a neck dissection and coagulation of the external carotid artery, but no occlusion of the MCA. Ischemia and reperfusion were confirmed by rCBF.\n(§3) TAK-242 treatment—TAK-242 was dissolved in DMSO and then diluted in sterile endotoxin-free water and injected intraperitoneally (i.p., 3 mg/kg body weight) 1 hr after MCAO or sham surgical operation.\nAntibody array—Proteins were prepared from ischemic cerebral hemispheres. Forty inflammatory cytokines were analyzed by antibody arrays (RayBio® Cytokine Antibody Arrays—Mouse Inflammation Antibody Array G Series I). Briefly, the glass chips were air-dried for 60 min and assembled into an incubation chamber and incubation frame. […] The signal data was collected and analyzed by software from RayBiotech, Inc. (Atlanta, Ga., USA). […]"}, "[2]": {"test_system": "mice subjected to acute cerebral I/R", "assay": "Evaluation of neurological score after focal cerebral ischemia/reperfusion (MCAO)", "conditions": "24 hrs after cerebral I/R; 3 mg/kg i.p. 1 hr after ischemia; scale 0 to 15, 15 perfect; control group 4.38", "source_text": "as §1\nFocal cerebral ischemia/reperfusion—Focal cerebral FR was induced by occlusion of the middle cerebral artery (MCAO) on the left side. Mice were subjected to anesthesia by 5.0% isoflurane and maintained by inhalation of 1.5% to 2% isoflurane driven by 100% oxygen flow. Mice were ventilated (110 breaths/min with volume 0.5 ml) and body temperature was regulated at 37.0° C. Heart rate and PO2 were monitored during surgery. […]\nEvaluation of neurological score—Mice were scored by a blinded investigator. […]"}, "[3]": {"assay": "Concentration of TAK-242 in plasma and brain tissue after i.p. injection (LC-MS/MS)", "conditions": "for concentration at 3 h / concentration at 8 h / concentration at 24 h: male, C57BL/6J, mouse, ip, 3 mg/kg body weight; for concentration at 3 h: 3 hrs after i.p. injection; for concentration at 8 h: 8 hrs after i.p. injection; for concentration at 24 h: 24 hrs after i.p. injection", "source_text": "as §1, §2, §3\nMeasurement of TAK242 concentration in plasma and brain tissue—Three, 8 or 24 hours after the injection of TAK242, the mice were anesthetized with 5.0% isoflurane driven by 100% oxygen flow. Blood (0.95 ml) was drawn from the left ventricle and immediately mixed with 0.05 mL sodium citrate (CCS). The samples were incubated at room temperature for 30 min and centrifuged at 8000 rpm. The plasma was collected and stored at −80° C. for future use Immediately after the blood was drawn, the mice were perfused with ice-cold normal saline via the ascending aorta until the perfusion buffer was clear from the right atrium. The brains were removed and weighed. Brain tissues were homogenized with buffer, and centrifuged at 14000 rpm for 10 min. Supernatants were collected and stored at −80° C. The concentrations of TAK-242 were detected by Intertek (USA) using Liquid Chromatography with Tandem Mass Spectrometry Detection (LC-MS/MS). Briefly, TAK-242 and internal standard (Bromfenac) were extracted from 50 μL of mouse plasma or brain homogenate by liquid-liquid extraction using methyltertiary-butyl ether (MTBE). After evaporation to dryness and reconstitution, the extracts were analyzed by LC-MS/MS. Run times were approximately 5 min. The Lower Limit of Quantitation (LLOQ) for TAK-242 is 0.5 ng/ml for plasma and 2 ng/g for brain homogenate."}, "[4]": {"test_system": "mice subjected to acute cerebral I/R", "assay": "Assessment of cerebral infarct size by TTC staining after focal cerebral ischemia/reperfusion (MCAO)", "conditions": "24 hrs after cerebral I/R, 3 mg/kg i.p. 1 hr after ischemia", "source_text": "Animals—Fifty male mice (C57BL/6J, body weight 25˜30 g) were obtained from Jackson Laboratory and maintained in the Division of Laboratory Animal Resources at Emory University”. The experiments outlined in this manuscript conform to the Guide for the Care and Use of Laboratory Animals published by the National Institutes of Health. The animal care and experimental protocols were approved by the Emory University Committee on Animal Care. […]\nFocal cerebral ischemia/reperfusion—Focal cerebral FR was induced by occlusion of the middle cerebral artery (MCAO) on the left side. […] Heart rate and PO2 were monitored during surgery. […]\nAssessment of cerebral infarct size—Twenty-four hours after FR, mice were sacrificed and perfused with ice-cold phosphate buffered saline (PBS) via the ascending aorta. […] The infarct areas were traced and quantified with ImageJ analysis system. […] The area of infarction and the area of both hemispheres were calculated for each brain slice. An edema index was calculated by dividing the total volume of the left hemisphere by the total volume of the right hemisphere. The actual infarct volume adjusted for edema was calculated by dividing the infarct volume by the edema index. Infarct volumes are expressed as percentage of the total brain volume±S.E.M."}, "[5]": {"conditions": "hemisphere contralateral to ischemia, brain tissue, read-out: concentration of TAK-242 in hemisphere contralateral to ischemia"}, "[6]": {"conditions": "ischemic (ipsilateral) hemisphere, brain tissue, read-out: concentration of TAK-242 in ischemic (ipsilateral) hemisphere"}, "[7]": {"conditions": "plasma, mice with tMCAO, read-out: concentration of TAK-242 in plasma"}},
  "note": "Entries after “also recorded” stand apart in the source; their conditions may differ. Where two headings read alike, the source gives them in different places.",
  "data": [
    {"smiles": "CCOC(=O)C1=CCCC[C@H]1S(=O)(=O)Nc1ccc(F)cc1Cl", "note": "[TAK-242, ethyl (6R)-6-[N-(2-chloro-4-fluorophenyl)sulfamoyl]cyclohex-1-ene-1-carboxylate]", "values": [
      {"measurement": "level of MCP-1 in brain tissue", "setting": "[1]", "result": "significantly reduced"},
      {"measurement": "level of MIP-1γ in brain tissue", "setting": "[1]", "result": "significantly reduced"},
      {"measurement": "level of TIMP-1 in brain tissue", "setting": "[1]", "result": "significantly reduced"},
      {"measurement": "level of sTNF RII in brain tissue", "setting": "[1]", "result": "significantly reduced"},
      {"measurement": "neurological score", "setting": "[2]", "result": 6.73},
      {"measurement": "ability to pass through the blood brain barrier (BBB)", "setting": "[3]; 3 mg/kg i.p., mice", "result": "passes the blood-brain barrier; also recorded: can pass through the BBB"},
      {"measurement": "concentration in ischemic hemisphere compared with contralateral hemisphere", "setting": "[3]; 3 mg/kg i.p., p<0.05", "result": "significantly higher"},
      {"measurement": "concentration at 3 h", "setting": "[3]; [5]", "result": 14.2, "unit": "ng/mL"},
      {"measurement": "concentration at 8 h", "setting": "[3]; [5]", "result": 15.1, "unit": "ng/mL"},
      {"measurement": "concentration at 24 h", "setting": "[3]; [5]", "result": 17.5, "unit": "ng/mL"},
      {"measurement": "concentration at 3 h", "setting": "[3]; [6]", "result": 26.1, "unit": "ng/mL"},
      {"measurement": "concentration at 8 h", "setting": "[3]; [6]", "result": 26.4, "unit": "ng/mL"},
      {"measurement": "concentration at 24 h", "setting": "[3]; [6]", "result": 25, "unit": "ng/mL"},
      {"measurement": "concentration at 3 h", "setting": "[3]; [7]", "result": 52, "unit": "ng/mL"},
      {"measurement": "concentration at 8 h", "setting": "[3]; [7]", "result": 54.1, "unit": "ng/mL"},
      {"measurement": "concentration at 24 h", "setting": "[3]; [7]", "result": 22.6, "unit": "ng/mL"},
      {"measurement": "brain infarct size", "setting": "[4]; control group 21.3%", "result": 12.5, "unit": "%"},
      {"measurement": "reduction of brain infarct size compared to control mice", "setting": "[4]; p<0.05", "result": 41, "unit": "%"}
    ]}
  ]
}
